This is an account of results in ChEMBL document CHEMBL2010746, “Synthesis, resolution and anticonvulsant activity of chiral N-1'-ethyl,N-3'-(1-phenylethyl)-(R,S)-2'H,3H,5'H-spiro-(2-benzofuran-1,4'-imidazolidine)-2',3,5'-trione diastereomers” (2012).

Experiment [1] concerns Mus musculus. The experiment in a line: Anticonvulsant activity in ip dosed mouse assessed as decrease in pentylenetetrazol-induced convulsions at 30 mins. The settings on record: 0.5 h. The format is functional.
In experiment [2] the test system is Mus musculus. The experiment in a line: Anticonvulsant activity in mouse assessed as decrease in pentylenetetrazol-induced convulsions at 300 mg/kg, ip at 30 mins. In kind it is functional, organism-based. Further details: dose 300 mg/kg.
Experiment [3] deals with Mus musculus. The experiment in a line: Anticonvulsant activity in mouse assessed as decrease in pentylenetetrazol-induced convulsions up to 300 mg/kg, ip at 30 mins. Further details: dose 300 mg/kg. In kind it is functional, organism-based.

Calls of active or inactive are those of the source. The calls are words filed in the database; no cut-off is given here.

By ED50 is commonly meant the midpoint of the dose-response relation. With `CCC1(c2ccccc2)C(=O)NC(=O)NC1=O` [PHENOBARBITAL], in the experiment on Mus musculus [1], the ED50 was determined as 25 mg/kg.
As for `CCN1C(=O)N([C@@H](C)c2ccccc2)[C@@]2(OC(=O)c3ccccc32)C1=O`, the ED50 in the experiment on Mus musculus [1] amounted to 300 mg/kg.
Regarding `CCN1C(=O)N([C@H](C)c2ccccc2)[C@]2(OC(=O)c3ccccc32)C1=O`, in the experiment with Mus musculus [2], the outcome was Active.
Turning to `CCN1C(=O)N([C@@H](C)c2ccccc2)[C@]2(OC(=O)c3ccccc32)C1=O`, the outcome in the experiment with Mus musculus [3] was inactive.
For `CCN1C(=O)N([C@H](C)c2ccccc2)[C@@]2(OC(=O)c3ccccc32)C1=O`, the outcome with Mus musculus [3] was inactive.
